Consider 12 compounds from patent publication US10344024B2, “Compounds as ROR gamma modulators” (Glenmark Pharmaceuticals S.A., priority 2015, dated 2019).

In the assay the target is T1, GST-tagged ROR gamma ligand binding domain (LBD) (Homo sapiens, UniProt P51449).
T1 construct: purchased Invitrogen
T1 sequence (P51449 269-508 limits assumed): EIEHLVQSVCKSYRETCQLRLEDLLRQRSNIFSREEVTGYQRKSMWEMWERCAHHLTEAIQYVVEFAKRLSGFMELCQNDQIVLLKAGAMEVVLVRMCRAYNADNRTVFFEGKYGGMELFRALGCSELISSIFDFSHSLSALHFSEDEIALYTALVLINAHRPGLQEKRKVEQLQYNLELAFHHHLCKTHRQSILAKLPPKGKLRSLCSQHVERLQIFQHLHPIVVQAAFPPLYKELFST
The experiment in a line: TR-FRET assay for ROR gamma (LanthaScreen co-activator peptide recruitment). It is filed as biochemical. As to conditions: for inhibition at 1 µM: compound concentration 1 μM; for inhibition at 1 µM / inhibition at 10 µM: TR-FRET ratio 520/495, percent of control; for inhibition at 10 µM: compound concentration 10 μM; for IC50: from dose response curve, nonlinear regression, read-out: IC50 range. In a few lines:
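Antagonist-mode co-activator recruitment: 10 nM GST-RORγ LBD with compound (4% DMSO final) in 25 mM HEPES pH 7.4, 100 mM NaCl, 5 mM DTT, 0.01% BSA, 1 h at 22° C.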
(In general: TR-FRET usually uses a lanthanide donor and a delayed reading to cut background.)

Usually inhibition stands for the share of the control response that was lost under treatment. For orientation: IC50 means the concentration needed to halve the response being measured.

With `Cc1ccc([C@@H](C)Oc2nccnc2-c2ccc(NC(=O)Cc3ccc(C(F)(F)C(C)O)cc3)cc2)c(Cl)c1` (stereo partly drawn) [Example 88, N-(4-(3-((R)-1-(2-Chloro-4-methylphenyl)ethoxy)pyrazin-2-yl)phenyl)-2-(4-(1,1-difluoro-2-hydroxypropyl)phenyl)acetamide], the inhibition at 1 µM came to 87.4%, the inhibition at 10 µM came to 85.5% and the IC50 was below 50 nM.

In the case of `CCC(F)(F)c1ccc(CC(=O)Nc2ccc(-c3nccnc3OCc3c(C)noc3C)cc2)cc1` [Example 89, 2-(4-(1,1-Difluoropropyl)phenyl)-N-(4-(3-((3,5-dimethylisoxazol-4-yl)methoxy)pyrazin-2-yl)phenyl)acetamide], the inhibition at 1 µM was determined as 58.8% and the inhibition at 10 µM came out at 74.6%.

In the case of `Cc1noc(C)c1CCOc1nccnc1-c1ccc(NC(=O)Cc2ccc(C(F)(F)C(C)O)cc2)cc1` (centres unmarked) [Example 90, 2-(4-(1,1-Difluoro-2-hydroxypropyl)phenyl)-N-(4-(3-(2-(3,5-dimethylisoxazol-4-yl)ethoxy)pyrazin-2-yl)phenyl)acetamide], the inhibition at 1 µM stood at 90.7%, the inhibition at 10 µM turned out to be 93.9% and the IC50 was below 50 nM.

Take `CC(O)C(F)(F)c1ccc(CC(=O)Nc2ccc(-c3nccnc3OCc3ccccc3Cl)cc2)cc1` (centres unmarked) [Example 91, N-(4-(3-((2-Chlorobenzyl)oxy)pyrazin-2-yl)phrnyl)-2-(4-(1,1-difluoro-2-hydroxypropyl)phenyl)acetamide]: the inhibition at 1 µM was 79.3%, the inhibition at 10 µM turned out to be 82.6% and the half-inhibitory concentration (IC50) was below 50 nM.

With `Cc1ncsc1CCOc1nccnc1-c1ccc(NC(=O)Cc2ccc(C(F)(F)C(C)O)cc2)cc1` (centres unmarked) [Example 92, 2-(4-(1,1-Difluoro-2-hydroxypropyl)phenyl)-N-(4-(3-(2-(4-methylthiazol-5-yl)ethoxy)pyrazin-2-yl)phenyl)acetamide], the inhibition at 1 µM was 83.5%, the inhibition at 10 µM came to 88% and the 50% inhibitory concentration (IC50) is 50 to 100 nM.

As for `CC(O)C(F)(F)c1ccc(CC(=O)Nc2ccc(-c3nccnc3OCC3CCCCC3)cc2)cc1` (centres unmarked) [Example 93, N-(4-(3-(Cyclohexylmethoxy)pyrazin-2-yl)phenyl)-2-(4-(1,1-difluoro-2-hydroxypropyl)phenyl)acetamide], the inhibition at 1 µM worked out at 86.6%, the inhibition at 10 µM came to 94.1% and the IC50 lay within 100 to 500 nM.

For `CC(O)C(F)(F)c1ccc(CC(=O)Nc2ccc(-c3nccnc3N3CC(OCc4ccccc4)C3)cc2)cc1` (centres unmarked) [Example 94, N-(4-(3-(3-(Benzyloxy)azetidin-1-yl)pyrazin-2-yl)phenyl)-2-(4-(1,1-difluoro-2-hydroxypropyl)phenyl)acetamide], the inhibition at 1 µM turned out to be 15.8% and the inhibition at 10 µM turned out to be 45.6%.

For `Cc1ccc([C@H](C)Nc2nccnc2-c2ccc(NC(=O)Cc3ccc(C(F)(F)C(C)O)cc3)cc2)c(C)c1` (stereo partly drawn) [Example 95, 2-(4-(1,1-Difluoro-2-hydroxypropyl)phenyl)-N-(4-(3-(((S)-1-(2,4-dimethylphenyl)ethyl)amino)pyrazin-2-yl)phenyl)acetamide], the inhibition at 1 µM is 93.7%, the inhibition at 10 µM was 95.4% and the IC50 is below 50 nM.

Turning to `CCC(F)(F)c1ccc(CC(=O)Nc2ccc(-c3nccnc3N3CCN(C(=O)C4CC4)CC3)cc2)cc1` [Example 96, N-(4-(3-(4-(Cyclopropanecarbonyl)piperazin-1-yl)pyrazin-2-yl)phenyl)-2-(4-(1,1-difluoropropyl)phenyl)acetamide], the inhibition at 1 µM came out at 47.7% and the inhibition at 10 µM stood at 77.2%.

As to `CCC(F)(F)c1ccc(CC(=O)Nc2ccc(-c3nccnc3NC(CO)c3ccccc3)cc2)cc1` (centres unmarked) [Example 97, 2-(4-(1,1-Difluoropropyl)phenyl)-N-(4-(3-((2-hydroxy-1-phenylethyl)amino)pyrazin-2-yl)phenyl)acetamide], the inhibition at 1 µM is 22.5% and the inhibition at 10 µM was 46.2%.

As for `Cc1ccc([C@@H](C)Oc2nccnc2-c2ccc(NC(=O)Cc3ccc(C(F)(F)C(C)O)cc3)cc2)c(C)c1` (stereo partly drawn) [Example 98, 2-(4-(1,1-Difluoro-2-hydroxypropyl)phenyl)-N-(4-(3-((R)-1-(2,4-dimethylphenyl)ethoxy)pyrazin-2-yl)phenyl)acetamide], the inhibition at 1 µM stood at 89.5%, the inhibition at 10 µM was 89% and the IC50 is below 50 nM.

With `CCC(F)(F)c1ccc(CC(=O)Nc2ccc(-c3nccnc3N3CCN(C4COC4)CC3)cc2)cc1` [Example 99, 2-(4-(1,1-Difluoropropyl)phenyl)-N-(4-(3-(4-(oxetan-3-yl)piperazin-1-yl)pyrazin-2-yl)phenyl)acetamide], the inhibition at 1 µM was found to be 79.2%, the inhibition at 10 µM amounted to 91.9% and the IC50 lay within 50 to 100 nM.
